# In ChEMBL document CHEMBL4371100, “Antimicrobial Chrysophaentin Analogs Identified from Laboratory Cultures of the Marine Microalga Chrysophaeum taylorii” (2019):
# Tested on: Staphylococcus aureus
# Test: Antibacterial activity against Staphylococcus aureus ATCC 29213 by CLSI method
# Type: functional
row,MIC,SMILES
1,10 µg/mL,Oc1cc(C/C=C(/Cl)Cc2c(Br)c(O)cc(O)c2Br)c(O)cc1Cl
2,40 µg/mL,Oc1cc(C/C=C\Cc2c(Br)c(O)cc(O)c2Br)c(O)cc1Br
3,40 µg/mL,Oc1cc(C/C=C\Cc2c(Br)c(O)cc(O)c2Br)c(O)cc1Cl
4,10 µg/mL,Oc1cc(O)cc(C/C(Cl)=C\Cc2cc(O)c(-c3c(O)cc(C/C(Cl)=C\Cc4cc(O)c(Cl)cc4O)cc3O)cc2O)c1
